# From PubChem BioAssay (NCI)
#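 Exposure lasted 48 hours, with cells grown in 96-well plates and compounds tested at five concentrations. GI50 = concentration required for 50% inhibition of growth. TGI: total growth inhibition.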 Where a SMILES comes first, the peptide text is derived from it. The star is where a group is joined. Cbz = O=C(OCc1ccccc1)*; OBn = c1ccc(CO*)cc1
# Key:
# Assay in all cases: NCI tumour cell line growth inhibition, 48 h
# OVCAR-4 ovarian = system: OVCAR-4 ovarian
# ACHN renal = system: ACHN renal
# SF-268 CNS = system: SF-268 CNS
# HOP-62 NSCLC = system: HOP-62 NSCLC
# 786-0 renal = system: 786-0 renal
# UACC-257 melanoma = system: UACC-257 melanoma
# NCI-H226 lung = system: NCI-H226 lung
# SF-295 CNS = system: SF-295 CNS
# SK-MEL-28 melanoma = system: SK-MEL-28 melanoma
# MDA-N = system: MDA-N
Compound,TGI (OVCAR-4 ovarian) [µM],TGI (ACHN renal) [µM],TGI (SF-268 CNS) [µM],TGI (HOP-62 NSCLC) [µM],TGI (786-0 renal) [µM],TGI (UACC-257 melanoma) [µM],TGI (NCI-H226 lung) [µM],TGI (SF-295 CNS) [µM],TGI (SK-MEL-28 melanoma) [µM],GI50 (OVCAR-4 ovarian) [µM],GI50 (ACHN renal) [µM],GI50 (SF-268 CNS) [µM],GI50 (SF-295 CNS) [µM],GI50 (SK-MEL-28 melanoma) [µM],TGI (MDA-N) [µM],GI50 (HOP-62 NSCLC) [µM],GI50 (UACC-257 melanoma) [µM],GI50 (NCI-H226 lung) [µM]
c1ccc(Nc2nnc(CSc3nc(-c4ccccc4)c(-c4ccccc4)[nH]3)s2)cc1,87.7,> 100,46.2,41,39.3,50,33,36,44.6,–,–,–,–,–,–,–,–,–
N#CC(C#N)=CN1CCN(C(=O)c2ccco2)C1=S,46,50.5,89.4,–,–,–,–,> 100,> 100,20.1,9.4,31.4,31.3,12.5,–,–,–,–
CN(C)c1ccc(-c2c(C#N)c(N)[nH]c(=S)c2C#N)cc1,> 100,> 100,> 100,> 100,> 100,> 100,92.2,> 100,> 100,–,–,–,–,–,> 100,–,–,–
C[C@H]1[C@H](C)N(Cc2ccccc2)P(=O)(C(O)/C=C/c2ccccc2)N1Cc1ccccc1 (stereo not given in full),15,> 25,> 25,> 25,10.9,14.6,16.9,20.1,> 25,–,–,–,–,–,13.6,–,–,–
COC(=O)CNC(=O)C(C)NC(=O)C(CC(=O)OCc1ccccc1)NC(=O)OCc1ccccc1 (stereo not drawn) (Cbz-Asp(OBn)-Ala-Gly-OMe; configuration not given here),–,–,–,> 100,> 100,> 100,> 100,> 100,> 100,–,–,–,–,–,> 100,–,–,–
COc1ccc2c(c1)CC[C@@H]1[C@@H]2CC[C@]2(C)C(=O)C3(CCCCC3)C[C@@H]12,> 100,> 100,–,> 100,–,> 100,> 100,> 100,> 100,> 100,> 100,–,> 100,> 100,–,> 100,44.8,> 100
CCOC(=O)CSc1ccnc(=O)[nH]1,–,> 100,> 100,–,> 100,> 100,–,> 100,–,–,–,–,–,–,–,–,–,–
CN(C(=O)C12C3C4C1C1C2C3C41I)C(C)(C)C (stereo not given),> 100,> 100,> 100,> 100,> 100,> 100,> 94.6,> 100,> 100,–,–,–,–,–,–,–,–,–
O=c1[nH]c(=O)n(C2OC(CO)C(O)C(F)C2O)cc1F (stereo not given),> 100,> 100,> 100,–,> 100,> 100,> 100,> 100,> 100,–,–,–,–,–,> 100,–,–,–
CCCCCCn1c(SCC)c2ccccc2c1-c1nc(F)nc(F)n1,> 100,> 100,> 100,> 100,> 100,> 100,> 100,> 100,> 100,–,–,–,–,–,–,–,–,–
N#CC1(C#N)C2CCCCC23OC(=N)C1(C#N)C(c1ccco1)O3 (stereo not given),–,94.2,67.4,–,31.2,34.9,> 100,> 100,45.6,–,–,–,–,–,33.8,–,–,–
